{
  "source": "patent US20220211605A1",
  "about": "“AGENT FOR PROTECTION AGAINST ATMOSPHERIC POLLUTANTS AND COMPOSITION FOR PROTECTION AGAINST ATMOSPHERIC POLLUTANTS” (SHOWA DENKO K.K., priority 2019, published 2022)",
  "key": {"[1]": {"tested_on": "cell line derived from Lewis lung carcinoma (LLC)", "test": "Effect of suppressing proliferation of cancer cells (WST-8) exposed to atmospheric dust", "format": "cell-based", "conditions": "sample 10 μM for 24 hours, then atmospheric dust (NIST 1648a) added 500 μg/mL for 48 hours, absorbance 450 nm relative to control without atmospheric dust = 1", "experimental": "The effect of Na tocopherol phosphate on suppressing the proliferation of cancer cells in a cell line derived from Lewis lung carcinoma (LLC, JCRB Cell Bank) was measured under the following conditions.\nThe LLC cells were seeded at the seeding density of 50000 cells/cm^2 in a culture medium in which a Ham F10 medium and an L15 medium (both manufactured by Sigma-Aldrich) were mixed at the ratio of 3:7 (volume ratio), and cultured for 24 hours under the conditions of 37° C. and 5% CO2. Next, a sample, in which Na tocopherol phosphate or tocopherol acetate was dissolved in an aqueous solution of 0.05% (V/V) ethanol, was added to the culture medium so that the final concentration of Na tocopherol phosphate or tocopherol acetate was 10 μM, and culturing was performed for 24 hours. Furthermore, one obtained by adding 1 μL of the aqueous solution of 0.05% (VN) ethanol to the culture medium and culturing for 24 hours was also prepared. […] Thereafter, the culture medium was replaced with a medium containing 10% (VN) of WST-8 of Nacalai Tesque Inc., and after further culturing for 3 hours, the absorbance at the wavelength of 450 nm was measured with a microplate reader i-Control (manufactured by Tecan Group Ltd.). […]"}, "NRF2 gene": {"tested_on": "NRF2 gene", "test": "Effect of promoting expression of NRF2 gene (quantitative real-time PCR, standardized to GAPDH) in NHEK exposed to atmospheric dust", "format": "cell-based, human", "conditions": "sample 10 μM for 24 hours, then atmospheric dust added 500 μg/mL for 48 hours, relative to control without atmospheric dust = 1", "experimental": "The effect of Na tocopherol phosphate on promoting the expression of an NRF2 gene in normal human epidermal keratinocytes (NHEK, manufactured by KURABO INDUSTRIES LTD.) was measured under the following conditions.\nThe NHEK cells were seeded in a HuMedia KG2 medium manufactured by KURABO INDUSTRIES LTD. at the seeding density of 10000 cells/cm^2, and cultured for 24 hours under the conditions of 37° C. and 5% CO2. Next, a sample, in which Na tocopherol phosphate or tocopherol acetate was dissolved in an aqueous solution of 0.05% (V/V) ethanol, was added to the culture medium so that the final concentration of Na tocopherol phosphate or tocopherol acetate was 10 μM, and culturing was performed for 24 hours. Furthermore, one obtained by adding 5 μL of the aqueous solution of 0.05% (V/V) ethanol to the culture medium and culturing for 24 hours was also prepared. […] Using this cDNA as a template, the expression level of the NRF2 gene was quantitatively determined by quantitative real-time PCR using a primer specific to the NRF2 gene (Perfect Real Time Primer, manufactured by Takara Bio Inc.). As an internal standard gene, the expression level of GAPDH was quantitatively determined (primer used: Perfect Real Time Primer, manufactured by Takara Bio Inc.), and the expression level of the NRF2 gene was standardized based on the expression level of GAPDH. […]"}, "[2]": {"tested_on": "cell line derived from Lewis lung carcinoma (LLC)", "test": "Effect of suppressing invasion of cancer cells (CytoSelect invasion assay kit) exposed to atmospheric dust", "format": "cell-based", "conditions": "sample 10 μM for 24 hours, then atmospheric dust (NIST 1648a) added 500 μg/mL for 6 hours + 18 hours, fluorescence relative to control without atmospheric dust = 1", "experimental": "The effect of Na tocopherol phosphate on suppressing the invasion of cells in a cell line derived from Lewis lung carcinoma (LLC, JCRB Cell Bank) was measured under the following conditions. A CytoSelect invasion assay kit manufactured by Cell Biolabs, Inc. was used for a test.\nThe LLC cells were seeded in a chamber plate for invasion tests attached to the above-mentioned invasion assay kit so that the concentration was 100000 cells/mL using a culture medium in which a Ham F10 medium and an L15 medium (both manufactured by Sigma-Aldrich) were mixed at the ratio of 3:7 (volume ratio), and cultured for 24 hours under the conditions of 37° C. and 5% CO2. Next, a sample, in which Na tocopherol phosphate or tocopherol acetate was dissolved in an aqueous solution of 0.05% (V/V) ethanol, was added to the culture medium so that the final concentration of Na tocopherol phosphate or tocopherol acetate was 10 μM, and culturing was further performed for 24 hours under the conditions of 37° C. and 5% CO2. […] Thereafter, the cells were stained using the above-mentioned invasion assay kit, and the fluorescence intensity at an excitation wavelength of 480 nm/an absorption wavelength of 570 nm was measured with a microplate reader i-Control (manufactured by Tecan Group Ltd.). […]"}, "[3]": {"tested_on": "normal human epidermal keratinocytes (NHEK)", "test": "Effect of suppressing ROS production (dichlorofluorescein diacetate ROS assay kit) in NHEK exposed to atmospheric dust", "format": "cell-based", "conditions": "sample 10 μM for 24 hours, then atmospheric dust (NIST 1648a) added 500 μg/mL for 48 hours, fluorescence relative to control without atmospheric dust = 1", "experimental": "The effect of Na tocopherol phosphate on suppressing ROS production in normal human epidermal keratinocytes (NHEK, manufactured by KURABO INDUSTRIES LTD.) was measured under the following conditions.\nThe NHEK cells were seeded in a HuMedia KG2 medium manufactured by KURABO INDUSTRIES LTD. at the seeding density of 10000 cells/cm^2, and cultured for 24 hours under the conditions of 37° C. and 5% CO2. Next, a sample, in which Na tocopherol phosphate or tocopherol acetate was dissolved in an aqueous solution of 0.05% (V/V) ethanol, was added to the culture medium so that the final concentration of Na tocopherol phosphate or tocopherol acetate was 10 μM, and culturing was performed for 24 hours under the conditions of 37° C. and 5% CO2. Furthermore, one obtained by adding 1 μL of the aqueous solution of 0.05% (V/V) ethanol to the culture medium and culturing for 24 hours was also prepared. […] Thereafter, the ROS production amount was measured using a ROS assay kit (manufactured by OZ BIOSCIENCES). […] After washing with PBS again, 100 μL of PBS was added, and the fluorescence intensity at an excitation wavelength of 485 nm/an absorption wavelength of 535 nm was measured with a microplate reader i-Control (manufactured by Tecan Group Ltd.). […]"}},
  "data": [
    {"smiles": "CC(=O)Oc1c(C)c(C)c2c(c1C)CCC(C)(CCC[C@H](C)CCC[C@H](C)CCCC(C)C)O2", "note": "(stereo partly shown) [Tocopherol acetate, tocopherol acetate]", "values": [
      {"measurement": "Relative cell proliferation amount", "setting": "[1]", "value": 3.98},
      {"measurement": "Relative gene expression level NRF2", "setting": "NRF2 gene", "value": 0.71},
      {"measurement": "Relative cell invasion", "setting": "[2]", "value": 2.08},
      {"measurement": "Relative ROS production amount", "setting": "[3]", "value": 1.67}
    ]}
  ]
}
